Data as given in US10739304B2, “Organic transistor-based system for electrophysiological monitoring of cells and method for the monitoring of the cells” (UNIVERSITA DEGLI STUDI DI CAGLIARI, priority 2015, dated 2020).

System: rat cardiomyocytes culture
Assay: Spontaneous electrical (beating) activity of rat cardiomyocyte culture recorded with the organic transistor (OCMFET) system, pharmacological modulation
Type: cell-based
Settings: 100 μM; for beating frequency modulation: spike-count on 4 min: rat cardiomyocytes culture (8 DIV) at 37° C., Verapamil added after Norepinephrine, statistics on 5 transistors, average and standard deviation, basal 129±4.6; for chemical tuning of the culture's spontaneous activity (drain current vs time): rat cardiomyocytes culture at 37° C., Norepinephrine first, then Verapamil
From the text: The system 100 was able to detect the occurrence of the signals (similarly to what MEA-based devices do), the beat rate and its rapid changing related to pharmacological modulations, obtained by applying both positive and negative chronotropic compounds (according to the method described in Simpson, P. Stimulation of hypertrophy of cultured neonatal rat heart cells through an alpha 1-adrenergic receptor and induction of beating through an alpha 1- and beta 1-adrenergic receptor interaction. Evidence for independent regulation of growth and beating. Circ. Res. 56, 884-894 (1985); Yonemochi, H., Saikawa, T., Takakura, T., Ito, S., Takaki, R. Effects of calcium antagonist on β-receptors of cultured cardiac myocytes isolated from neonatal rat ventricle. Circulation 81, 1401-1408 (1990)). In FIG. 13 an example of extracellular action potentials measured, with an organic transistor 10 is shown. Considering a p-type organic transistor and a first inverting stage of the readout electronics, the shape of the single signal shown in FIG. 13 is consistent with the expected current fluctuation caused by the ionic charge displacement in the early phase of the cardiac action potential. The drain current IDS fluctuation is driven by the fast movement of Na+ ions occurring at the very beginning of the intracellular action potential.
Systematic measurements by recording the spontaneous electrophysiological activity of rat cardiomyocytes (8 Days InVitro—DIV) by means of the system 100 (FIG. 14) have been performed.
All the measurements relative to the pharmacological modulation of the electrical activity were performed while maintaining the culture at constant temperature (37° C.) and the same reliable results were obtained in five recording devices simultaneously.

## NC[C@H](O)c1ccc(O)c(O)c1 [Norepinephrine]
  beating frequency modulation: spike-count on 4 min: 280±28.6
  chemical tuning of the culture's spontaneous activity (drain current vs time): accelerated

## COc1ccc(CCN(C)CCCC(C#N)(c2ccc(OC)c(OC)c2)C(C)C)cc1OC (stereo not shown) [Verapamil]
  beating frequency modulation: spike-count on 4 min: 15±1.9
  chemical tuning of the culture's spontaneous activity (drain current vs time): suppressed
